# According to paper PMC8515607 (ACS Omega, 2021):
# Like-named read-outs stand apart in the source and are kept apart here.
# Tests used:
# [1] = test system: BALB/3T3; assay: In vitro antiproliferative activity, SRB assay, normal fibroblasts BALB/3T3; type: cell-based; conditions: Mus musculus, BALB/3T3, normal murine embryonic fibroblasts, 72 h, mean ± SD
# Description: (§1) The A549 and MCF7 cell lines were purchased from the European Collection of Authenticated Cell Cultures (ECACC, Salisbury, U.K., 86012804 and 86012803). The LoVo cell line was purchased from the American Type Culture Collection (CCL-229, ATCC, Manassas, VA), and LoVo/DX by courtesy of Prof. E. Borowski (Technical University of Gdańsk, Gdańsk, Poland). The BALB/3T3 cell line was purchased from the American Type Culture Collection (CCL-163, ATCC, Manassas, VA). All of the cell lines are maintained in the Institute of Immunology and Experimental Therapy (IIET), Wroclaw, Poland.
# (§2) A549 cells were cultured in a mixture of OptiMEM and Roswell Park Memorial Institute (RPMI) 1640 (1:1) medium (IIET, Wroclaw, Poland), supplemented with 10% fetal bovine serum HyClone (GE Healthcare) and 2 mM L-glutamine (Sigma-Aldrich, Germany). MCF7 cells were cultured in a mixture of Eagle’s medium (IIET, Wroclaw, Poland), supplemented with 10% fetal bovine serum, 2 mM L-glutamine, and insulin (Sigma-Aldrich, Germany). LoVo and LoVo/DX cells were cultured in F12K medium (Corning), supplemented with 10% fetal bovine serum HyClone (GE Healthcare) and 0.1 μg/mL doxorubicin (Accord) for LoVo/DX. BALB/3T3 fibroblasts were cultured in Dulbecco’s medium (Gibco), supplemented with 10% fetal bovine serum (GE Healthcare) and 2 mM L-glutamine (Sigma-Aldrich, Germany). All culture media contained antibiotics: 100 U/mL penicillin (Polfa-Tarchomin, Poland) and 0.1 mg/mL streptomycin (Sigma-Aldrich, Germany). All cell lines were cultured during entire experiment in humid atmosphere at 37 °C and 5% CO2.
# (§3) All cell lines were exposed to each tested agent at different concentrations in the range 100–0.00001 μg/mL for 72 h. The cells were also exposed to the reference drug cisplatin (Teva Pharmaceuticals, Poland) and doxorubicin (Accord Healthcare Limited, U.K.). Additionally, all cell lines were exposed to dimethyl sulfoxide (DMSO) (solvent used for tested compounds) (POCh, Poland) at concentrations corresponding to those present in tested agents dilutions. After 72 h, sulforhodamine B (SRB) assay was performed.[57]
# (§4) After 72 h of incubation with the tested compounds, the cells were fixed in situ by gently adding cold 50% trichloroacetic acid (TCA) (POCh, Poland) and were incubated at room temperature for 1 h. Then, the wells were washed four times with water and air-dried. Next, 0.1% solution of sulforhodamine B (Sigma-Aldrich, Germany) in 1% acetic acid (POCh, Poland) was added to each well and the plates were incubated at room temperature for 0.5 h. After incubation time, unbound dye was removed by washing plates four times with 1% acetic acid, whereas stain bound to cells was solubilized with 10 mM Tris base (Sigma-Aldrich, Germany). Absorbance of each solution was read at Synergy H4 Hybrid Multi-Mode Microplate Reader (BioTek Instruments) at the 540 nm wavelength.
# (§5) IC50 values were calculated in Excel sheet using formulas adapted by Mateusz Psurski fromCheburator 0.4, Dmitry Nevozhay software (version 1.2.0 software by Dmitry Nevozhay, 2004–2014, http://www.cheburator.nevozhay.com, freely available) for each experiment.[58] Compounds at each concentration were tested in triplicate in a single experiment, and each experiment was repeated at least three times independently.
# [2] = test system: A549, MCF-7, and LoVo cells; assay: Antiproliferative activity, values quoted jointly for three tumor lines; type: cell-based, human; conditions: summary of Table 1; for IC50: Homo sapiens, read-out: IC50 against A549, MCF-7, and LoVo cells (span over the three lines)
# Description: as §1, §2, §3, §4, §5
# [3] = test system: LoVo/DX; assay: cells; type: cell-based, human; conditions: for LoVo/DX RI: resistance index = IC50 LoVo/DX / IC50 LoVo; for LoVo/DX SI: selectivity index = IC50 BALB/3T3 / IC50 LoVo/DX
# Description: as §1, §2, §3, §4, §5
# [4] = test system: A549; assay: cells; type: cell-based, human; conditions: for IC50: Homo sapiens, A549, 72 h, read-out: A549 IC50 (nM), 72 h exposure, SRB, mean ± SD; for A549 SI: selectivity index = IC50 BALB/3T3 / IC50 A549
# Description: as §1, §2, §3, §4, §5
# [5] = test system: LoVo; assay: cells; type: cell-based, human; conditions: for IC50: Homo sapiens, LoVo, 72 h, read-out: LoVo IC50 (nM); for LoVo SI: selectivity index = IC50 BALB/3T3 / IC50 LoVo
# Description: as §1, §2, §3, §4, §5
# [6] = test system: MCF-7; assay: cells; type: cell-based, human; conditions: for IC50: Homo sapiens, MCF7, 72 h, read-out: MCF-7 IC50 (nM); for MCF-7 SI: selectivity index = IC50 BALB/3T3 / IC50 MCF-7
# Description: as §1, §2, §3, §4, §5
# [7] = test system: LoVo; set-up: method as in PMID 32295119; conditions: cited from earlier work
# [8] = test system: A549; set-up: method as in PMID 32295119; conditions: amide directly on C7; cited from earlier work
# [9] = test system: MCF-7; set-up: method as in PMID 32295119; conditions: amide directly on C7; cited from earlier work
# [10] = test system: A549 and MCF7 cells; set-up: method as in PMID 32295119; conditions: read-out: IC50 A549 and MCF7 of 7-amide (span); amide directly on C7; cited from earlier work
# [11] = test system: all cells used, both cancerous and normal; assay: Antiproliferative activity, values quoted jointly for all cell lines tested; type: cell-based
# Description: as §1, with “Poland. […]” for “Poland.”
# After 72 h of incubation with the tested compounds, the cells were fixed in situ by gently adding cold 50% trichloroacetic acid (TCA) (POCh, Poland) and were incubated at room temperature for 1 h. […] Absorbance of each solution was read at Synergy H4 Hybrid Multi-Mode Microplate Reader (BioTek Instruments) at the 540 nm wavelength.
# IC50 values were calculated in Excel sheet using formulas adapted by Mateusz Psurski fromCheburator 0.4, Dmitry Nevozhay software (version 1.2.0 software by Dmitry Nevozhay, 2004–2014, http://www.cheburator.nevozhay.com, freely available) for each experiment.[58] […]
# [12] = Homo sapiens, LoVo/DX, 72 h, read-out: LoVo/DX IC50 (nM), 72 h exposure, SRB, mean ± SD
SMILES,IC50 [1] [nM],IC50 [2] [nM],"IC50 [3, 12] [nM]","IC50 ([3]; read-out: LoVo/DX IC50, 72 h exposure, SRB, mean ± SD) [nM]",LoVo/DX RI [3],LoVo/DX SI [3],IC50 [4] [nM],A549 SI [4],IC50 [5] [nM],LoVo SI [5],IC50 [6] [nM],MCF-7 SI [6],SI LoVo of 7-amide ([7]; amide directly on C7),"IC50 ([7]; read-out: IC50 LoVo of 7-amide, amide directly on C7 of 10-N-methylaminocolchicine) [nM]",SI A549 of 7-amide [8],SI MCF7 of 7-amide [9],IC50 [10] [nM],"SI for A549, MCF-7, and LoVo cells (span) [2]","SI (selectivity coefficients, all cancer lines) [11]","IC50 ([11]; cancerous and normal lines, read-out: IC50 against all cells used (span)) [nM]"
CCCCc1cn([C@H]2CCc3cc(OC)c(OC)c(OC)c3-c3ccc(NC)c(=O)cc32)nn1 [Compound 7],9.9 ± 3.7,3.1 to 6.4,< 30,23 ± 11,7.4,0.4,6.4 ± 3.9,1.5,3.1 ± 1.3,3.2,5.4 ± 3.7,1.8,–,–,–,–,–,–,–,–
CNc1ccc2c(cc1=O)[C@@H](n1cc(CNC(=O)CCCCCl)nn1)CCc1cc(OC)c(OC)c(OC)c1-2 [Compound 32],22 ± 5.6,2.7 to 6.3,2800 ± 200,–,560,<0.1,4.4 ± 1.3,5.0,5 ± 0.4,4.4,2.7 ± 1.1,8.1,–,–,–,–,–,–,–,–
CCCCCCCCCCCCCCCC(=O)N[C@H]1CCc2cc(OC)c(OC)c(OC)c2-c2ccc(NC)c(=O)cc21 [7-palmitamide],–,–,–,–,–,–,–,–,–,–,–,–,8.8,62,0.9,1.2,460 to 620,–,–,–
CCOC(=O)c1cn([C@H]2CCc3cc(OC)c(OC)c(OC)c3-c3ccc(NC)c(=O)cc32)nn1 [Compound 19],24 ± 11,10 to 25,220 ± 23,–,17,0.1,17 ± 0.8,1.4,13 ± 3.5,1.8,11 ± 3.7,–,–,–,–,–,–,–,–,–
CNc1ccc2c(cc1=O)[C@@H](n1cc(C(=O)OC)nn1)CCc1cc(OC)c(OC)c(OC)c1-2 [Compound 18],20 ± 13,10 to 25,280 ± 77,–,23,0.1,13 ± 2.3,1.5,12 ± 4.3,1.7,12 ± 2.7,1.7,–,–,–,–,–,–,–,–
CNc1ccc2c(cc1=O)[C@@H](n1cc(CNC(=O)Oc3ccccc3)nn1)CCc1cc(OC)c(OC)c(OC)c1-2 [Compound 43],11 ± 0.4,–,920 ± 150,–,200,<0.1,4.1 ± 0.6,2.7,4.7 ± 1.1,2.3,2.8 ± 1.2,3.9,–,–,–,–,–,2.1–3.9,–,–
"CNc1ccc2c(cc1=O)[C@@H](N=[N+]=[N-])CCc1cc(OC)c(OC)c(OC)c1-2 [Compound 4, 7-azido-10-N-methylaminocolchicine]",2.1 ± 1.2,–,1.7 ± 0.6,–,1.5,1.2,1.4 ± 0.5,1.5,1.1 ± 0.5,1.9,1.5 ± 0.3,1.4,–,–,–,–,–,–,< 2,1.1 to 2.1
